# According to ChEMBL document CHEMBL1146787, “Novel nonpeptidic inhibitors of HIV-1 protease obtained via a new multicomponent chemistry strategy” (Bioorg Med Chem Lett, 2004):
# Columns and labels:
# [1] = target: T1, Human immunodeficiency virus type 1 protease (Human immunodeficiency virus 1, UniProt Q72874); experiment: Inhibitory concentration against Protease
# [2] = target: T1, Human immunodeficiency virus type 1 protease; experiment: Evaluated for inhibition of Protease after CLND/MS correction from the crude mixture
# [3] = target: T1, Human immunodeficiency virus type 1 protease; experiment: Evaluated for inhibition of Protease after resynthesis and purification
# [4] = target: T1, Human immunodeficiency virus type 1 protease; experiment: Evaluated for inhibition of Protease from the crude plate mixture
Structure (SMILES),IC50 [1],other results
CC(C)(C)NC(=O)C1(CCc2ccccc2)OC(O)=C(CCc2ccccc2)C1=O (configuration not stated),3 µM,
CC(C)(C)NC(=O)C1(C)OC(O)=C(CCc2ccccc2)C1=O (configuration not stated),70 µM,
CC(C)(C)NC(=O)C1(CCc2ccccc2)OC(O)=C(Cc2ccccc2)C1=O (configuration not stated),11 µM,
CC(C)=CCCC(C)C1=C(O)C(CCc2ccccc2)(C(=O)NC(C)(C)C)OC1=O (configuration not stated),1 µM,IC50 [2]: 1.3 µM; IC50 [3]: 1.3 µM; IC50 [4]: 15 µM
CC(C)(C)NC(=O)C1(CCc2ccccc2)OC(O)=C(c2ccc(-c3ccccc3)cc2)C1=O (configuration not stated),27 µM,
CNC(=O)C1(C)OC(O)=C(C(C)c2ccccc2)C1=O (configuration not stated),244 µM,
CCCCNC(=O)C1(C)OC(O)=C(CCc2ccccc2)C1=O (configuration not stated),> 100 µM,
CC(C1=C(O)C(C)(C(=O)NC(C)(C)C)OC1=O)c1ccccc1 (configuration not stated),105 µM,
CC(C1=C(O)OC(C(=O)NCCc2ccc(Cl)cc2)(C(C)C)C1=O)c1ccccc1 (configuration not stated),31 µM,
COc1cc(CC2=C(O)C(C)(C(=O)NC(C)(C)C)OC2=O)cc(OC)c1OC (configuration not stated),> 1000 µM,
CN(C(=O)OC(C)(C)C)C1=C(O)C(CCc2ccccc2)(C(=O)NC(C)(C)C)OC1=O (configuration not stated),47 µM,
CC(C)(C)NC(=O)C1(CCc2ccccc2)OC(O)=C(c2c[nH]c3ccccc23)C1=O (configuration not stated),107 µM,
C[C@H](C1=C(O)[C@@](CCc2ccccc2)(C(=O)NCc2ccc(C(C)(C)C)cc2)OC1=O)c1ccccc1,,IC50 [3]: 5.4 µM
CC(C1=C(O)[C@@](CCc2ccccc2)(C(=O)NCc2ccc(C(C)(C)C)cc2)OC1=O)c1ccccc1 (some centres not stated),5 µM,
COCCNC(=O)C1(C)OC(O)=C(C(C)c2ccccc2)C1=O (configuration not stated),224 µM,
CN(C(=O)OC(C)(C)C)C1=C(O)C(CCc2ccccc2)(C(=O)NCC2CCCO2)OC1=O (configuration not stated),193 µM,
CNC1=C(O)C(CCc2ccccc2)(C(=O)NCC2CCCO2)OC1=O (configuration not stated),> 1000 µM,
CC(C)(C)NC(=O)C1(CCc2ccccc2)OC(O)=C(c2ccc(C(C)(C)C)cc2)C1=O (configuration not stated),17 µM,
COc1cc(CC2=C(O)C(C)(C(=O)NC3CC3)OC2=O)cc(OC)c1OC (configuration not stated),> 1000 µM,
CC(C1=C(O)C(CCc2ccccc2)(C(=O)NC(C)(C)C)OC1=O)c1ccccc1 (configuration not stated),4 µM,IC50 [2]: 4.1 µM; IC50 [3]: 2 µM; IC50 [4]: 6 µM
CC1(C(=O)NC2CC2)OC(O)=C(CCc2ccccc2)C1=O (configuration not stated),294 µM,
CC(C)=CCCC(C)C1=C(O)C(C)(C(=O)NC(C)(C)C)OC1=O (configuration not stated),151 µM,
COc1cc(CC2=C(O)C(CCc3ccccc3)(C(=O)NCC(C)(C)C)OC2=O)cc(OC)c1OC (configuration not stated),> 1000 µM,
"C[C@H](C1=C(O)C(CCc2ccccc2)(C(=O)NCc2ccc(C(C)(C)C)cc2)OC1=O)c1ccccc1 (single isomer, unassigned)",84 µM,IC50 [2]: 1.2 µM; IC50 [3]: 4.6 µM
